The source of these data is patent publication US20240271102A1, “METHODS FOR ENGINEERING AND USE OF CILIATED ORGANOIDS HAVING NATIVE-LIKE, APICAL-OUT POLARITY” (Carnegie Mellon University, priority 2021, published 2024).

Format in all cases: cell-based, human
For data set [1], the system named is apical-out airway organoids (AOAOs). Kind of data set: AOAO rotation / angular velocity of […]-embedded organoids (computer vision tracking). On the procedure: © embedding of AOAOs: Mature AOAOs at day-21 to day-28 of differentiation were collected together and embedded in […]® matrices. For […]® embedding, collected AOAOs were resuspended in 40% (vol/vol) GFR-[…]® in differentiation medium, which was kept on a heat plate set to 37° C. for 10 minutes to enable effective gelation. Upon matrix gelation, differentiation medium was added to the top of the AOAO-containing gel matrices. All matrix-embedded AOAOs were maintained at 37° C. with 5% CO2. The next day, 30-second video recordings of AOAOs were captured using EVOS FL Auto 2 Imaging System. […] The distance covered by each correspondence was measured and converted to the rotational velocity (Sun et al., in 2010 IEEE Computer Society Conference on Computer Vision and Pattern Recognition, 2432-2439, 2010). […] The difference in rotational and angular velocity was quantified by calculating the mean normalized deviation of velocity (rotational and angular) from the mean (FIG. 19E) using the following equation: Treating AOAOs with Paclitaxel or EHNA for angular velocity analysis: Mature AOAOs (day-21 to day-28 of differentiation) were embedded in […]® for two days before treatment with desired chemical inhibitors of cilia motility. […]

The test system is the same in data set [2]. Briefly: Cilia beating frequency (CBF) by kymograph analysis. On the procedure:
Imaging the AOAO cilia beating for kymographs generation and cilia beating frequency (CBF) calculation: Mature AOAOs (day-21 to day-28 of differentiation) were transferred to a 1.5-mL Eppendorf tube and kept on ice. Cold collagen type 1 was neutralized with the neutralization solution, added to the organoids at a final concentration of 2 mg/mL, and the entire AOAO-collagen mixture was transferred to the glass bottom region of a MatTek dish. The MatTek dish containing organoids in collagen was kept on ice for additional 10 minutes until the organoids settled down to the bottom of the dish. The MatTek dish was then placed on a heat plate set to 37° C. for 10 minutes. 1 mL of differentiation medium was placed in the dish before capturing video recording of cilia beating using on a Zeiss AxioObserver Z1 microscope with a 100×, 1.45 NA objective and pco.edge 5.5 camera. The high-speed video recordings of cilia beating were preprocessed using the previously described method to smoothen noise and variations in contrast. Additionally, the Contrast Limited Adaptive Histogram Equalization (CLAHE) function in Python v. […] The normal vector with respect to the organoid surface for each region of interest was calculated. […] The peaks in the kymograph were counted and divided by the duration of the video to obtain the CBF value for the organoid. […]

The next data set has as its system NHBE cells. Briefly: Spheroid formation of NHBEs on U-bottom cell repellent surface. The conditions noted are these: 10 μM Y27632 in differentiation medium at initial seeding, day 1. On the procedure: Mucociliary differentiation of NHBEs with apical-out polarity was then carried out. Once the cells reached about 75% confluency, the medium was aspirated and cells were rinsed once with DPBS. Trypsin-EDTA (0.25%) was added and incubated at 37° C. After all the cells had lifted, complete RPMI medium was added to neutralize the trypsin. The cell suspension was transferred into a 15 mL centrifuge tube, which was then centrifuged at 220×g for 5 minutes at room temperature. The cell pellet was resuspended to a cell density of 5000 cells/mL in differentiation medium containing 10 μM of Y27632. Aliquots (100 μL) of the cell suspension were then transferred to each well of a 96-well cell-repellent microplate. 50 μL of the media were pipetted out from each well and replaced with fresh differentiation medium every other day. Apical-out organoid formation was examined with different starting NHBE cell numbers (1000, 500, 200, 100, 50, and 20 cells per well) on a 96-well U-bottom cell repellent surface. Studies also were conducted to test whether the addition of 10 μM Y27632 into the differentiation medium for initial seeding improved cell viability and spheroid formation (FIGS. 3A-3F and 4A-4F). […] It is noted that in other experiments, however, a density of 1000 cells per well did support favorable spheroid formation.

Data set [3] relates to apical-out airway organoids (AOAOs). Briefly: MUC5AC goblet cell immunofluorescence staining of apical-out airway organoids. On the procedure:
Differentiation of airway basal cells into apical-out airway organoids: Human ABSCs (P2) were trypsinized and resuspended (5000 cells/ml) in differentiation medium ([…]™-ALI Medium) supplemented with 10 μM Y27632. 100 μL of resuspended hABSCs were placed per well in a 96-well cell-repellent microplate (GreinerBio-One, 655970). The cultures were maintained at 37° C. with 5% CO2 for 21-28 days. […]

Consider `CCCCCC[C@@H]([C@@H](C)O)n1cnc2c(N)ncnc21` (racemic) [EHNA, erythro-9-(2-hydroxy-3-nonyl)adenine], for which the “change in organoid angular velocity” value in data set [1] (EHNA 0, 0.1, 0.3 and 1 mM, 2 hours, mature AOAOs) is “dose-dependent reduction in organoid angular velocity”. Moreover, the “cilia beating frequency (CBF)” value in data set [2] (1 mM EHNA, 2 hours) was “inhibitory effect”.

Take `C[C@@H](N)[C@H]1CC[C@H](C(=O)Nc2ccncc2)CC1` [Y27632]: in the data set on NHBE cells, the “spheroid formation with versus without Y27632” value is “no significant differences”.

In the case of `CC(=O)O[C@H]1C(=O)[C@@]2(C)[C@H]([C@H](OC(=O)c3ccccc3)[C@]3(O)C[C@H](OC(=O)[C@H](O)[C@@H](NC(=O)c4ccccc4)c4ccccc4)C(C)=C1C3(C)C)[C@]1(OC(C)=O)CO[C@@H]1C[C@@H]2O` [paclitaxel, Paclitaxel], the “organoid angular velocity over time” value in data set [1] (paclitaxel 20 μM, monitored periodically for 24 hours) is “progressive reduction of organoid angular velocity”. For the same molecule, the “cilia beating frequency (CBF)” value in data set [2] (paclitaxel 20 μM, 24 hours) is reported as “dramatically reduced CBF”.

As to “IL-13: pro-inflammatory cytokine interleukin-13”, in data set [3] (IL-13 5 ng/mL in differentiation medium during the entire differentiation), the “goblet cells (MUC5AC+) in Day 21 AOAOs” value is on record as “massive induction of goblet cells”. For the same molecule, the “goblet cells (MUC5AC expression)” value in data set [3] (IL-13 at concentration as low as 1 ng/mL) was “exhibited goblet cells”.
